Patent US8247211B2, “Glycopeptide antibiotics” (American Cyanamid Company, priority 2001, dated 2012)
Values after ≈ are worked out from the molar mass of the structure shown.

Legend:
Experiment in all cases: In vitro antibacterial evaluation: minimum inhibitory concentration (MIC), broth dilution method
Type in all cases: cell-based
[1] = tested on: Staphylococcus sp.; settings: for MIC Staphylococcus aureus (ATCC 29213): strain ATCC 29213; for MIC Staphylococcus aureus (GC 1131): strain GC 1131; for MIC Staphylococcus aureus (GC 3051): strain GC 3051; for MIC Staphylococcus aureus (GC 3053): strain GC 3053; for MIC Staphylococcus aureus (GC 4541): strain GC 4541; for MIC Staphylococcus aureus (GC 4542): strain GC 4542; for MIC Staphylococcus aureus (GC 4544): strain GC 4544; for MIC Staphylococcus aureus (GC 4545): strain GC 4545
Protocol: (§1) The minimum inhibitory concentration (MIC), the lowest concentration of the antibiotic which inhibits growth of the test organism, is determined by the broth dilution method using Muller-Hinton II […] (Baltimore Biological Laboratories) following the recommendations of the National Committee for Clinical Laboratory Standards [Methods for dilution antimicrobial susceptibility tests for bacteria that grow aerobically, approved standard M7-A2, National Committee for Clinical Laboratory Standards, Villanova, Pa].
(§2) An inoculum level of 5×10^5 CFU/mL, and a range of antibiotic concentrations (64-0.06 μg/mL) is used. […] The test organisms include a spectrum of Gram-positive bacteria comprised of Staphylococcus sp., Streptococcus sp. and Enterococcus sp. These organisms include recent clinical isolates that are resistant to methicillin, penicillin and/or vancomycin.

[2] = tested on: Enterococcus sp.; settings: broth dilution, 5×10^5 CFU/mL, 18 hours at 35° C.
Protocol: as §1, §2

[3] = tested on: Streptococcus sp.; settings: broth dilution, 5×10^5 CFU/mL, 18 hours at 35° C.
Protocol: as §1, §2

[4] = tested on: Escherichia coli; settings: 5×10^5 CFU/mL, 18 hours at 35° C.
Protocol: as §1, §2

[5] = broth dilution, 5×10^5 CFU/mL, 18 hours at 35° C.
[6] = broth dilution, 18 hours at 35° C.

MIC Coagulase Negative Staphylococcus (GC 4547) [1, 5]: 8 µg/mL (≈ 5.72 µM) | MIC Coagulase Negative Staphylococcus (GC 4548) [1, 5]: 8 µg/mL (≈ 5.72 µM) | MIC Coagulase Negative Staphylococcus (GC 4549) [1, 5]: 4 µg/mL (≈ 2.86 µM) | MIC Coagulase Negative Staphylococcus (GC 4551) [1, 5]: 32 µg/mL (≈ 22.9 µM) | MIC Coagulase Negative Staphylococcus (GC 6257) [1, 5]: 4 µg/mL (≈ 2.86 µM) | MIC Staphylococcus aureus-SMITH (GC 4543) [1, 5]: 16 µg/mL (≈ 11.4 µM) | MIC Staphylococcus aureus (ATCC 29213) [1]: 16 µg/mL (≈ 11.4 µM) | MIC Staphylococcus aureus (ATCC 29213) [1, 6]: 16 µg/mL (≈ 11.4 µM) | MIC Staphylococcus aureus (GC 1131) [1]: 16 µg/mL (≈ 11.4 µM) | MIC Staphylococcus aureus (GC 1131) [1, 6]: 16 µg/mL (≈ 11.4 µM) | MIC Staphylococcus aureus (GC 3051) [1]: 16 µg/mL (≈ 11.4 µM) | MIC Staphylococcus aureus (GC 3051) [1, 6]: 16 µg/mL (≈ 11.4 µM) | MIC Staphylococcus aureus (GC 3053) [1]: 32 µg/mL (≈ 22.9 µM) | MIC Staphylococcus aureus (GC 3053) [1, 6]: 32 µg/mL (≈ 22.9 µM) | MIC Staphylococcus aureus (GC 4541) [1]: 8 µg/mL (≈ 5.72 µM) | MIC Staphylococcus aureus (GC 4541) [1, 6]: 8 µg/mL (≈ 5.72 µM) | MIC Staphylococcus aureus (GC 4542) [1]: 16 µg/mL (≈ 11.4 µM) | MIC Staphylococcus aureus (GC 4542) [1, 6]: 16 µg/mL (≈ 11.4 µM) | MIC Staphylococcus aureus-SMITH (GC 4543) ([1]; strain GC 4543, broth dilution, 18 hours at 35° C.): 16 µg/mL (≈ 11.4 µM) | MIC Staphylococcus aureus (GC 4544) [1]: 16 µg/mL (≈ 11.4 µM) | MIC Staphylococcus aureus (GC 4544) [1, 6]: 16 µg/mL (≈ 11.4 µM) | MIC Staphylococcus aureus (GC 4545) [1]: 16 µg/mL (≈ 11.4 µM) | MIC Staphylococcus aureus (GC 4545) [1, 6]: 16 µg/mL (≈ 11.4 µM) | MIC Coagulase Negative Staphylococcus (GC 4547) ([1]; strain GC 4547, broth dilution, 18 hours at 35° C.): 8 µg/mL (≈ 5.72 µM) | MIC Coagulase Negative Staphylococcus (GC 4548) ([1]; strain GC 4548, broth dilution, 18 hours at 35° C.): 8 µg/mL (≈ 5.72 µM) | MIC Coagulase Negative Staphylococcus (GC 4549) ([1]; strain GC 4549, broth dilution, 18 hours at 35° C.): 4 µg/mL (≈ 2.86 µM) | MIC Coagulase Negative Staphylococcus (GC 4551) ([1]; strain GC 4551, broth dilution, 18 hours at 35° C.): 32 µg/mL (≈ 22.9 µM) | MIC Coagulase Negative Staphylococcus (GC 6257) ([1]; strain GC 6257, broth dilution, 18 hours at 35° C.): 4 µg/mL (≈ 2.86 µM) | MIC Enterococccus avium (GC 4558) [2]: 64 µg/mL (≈ 45.7 µM) | MIC Enterococccus faecalis (ATCC 29212) [2]: >64 µg/mL | MIC Enterococccus faecalis (GC 2691) [2]: >64 µg/mL | MIC Enterococccus faecalis (GC 3059) [2]: >64 µg/mL | MIC Enterococccus faecalis (GC 4552) [2]: >64 µg/mL | MIC Enterococccus faecalis (GC 4553) [2]: >64 µg/mL | MIC Enterococccus faecalis (GC 4554) [2]: >64 µg/mL | MIC Enterococccus faecalis (GC 6189) [2]: 64 µg/mL (≈ 45.7 µM) | MIC Enterococccus faecium (GC 2243) [2]: >64 µg/mL | MIC Enterococccus faecium (GC 4556) [2]: 64 µg/mL (≈ 45.7 µM) | MIC Enterococccus faecium (GC 4557) [2]: 8 µg/mL (≈ 5.72 µM) | MIC Enterococcus faecalis (GC 2242) [2]: 64 µg/mL (≈ 45.7 µM) | MIC Streptococcus agalactiae (GC 4564) [3]: 8 µg/mL (≈ 5.72 µM) | MIC Streptococcus pneumoniae (GC 1894) [3]: 1 µg/mL (≈ 0.715 µM) | MIC Streptococcus pneumoniae (GC 4565) [3]: 4 µg/mL (≈ 2.86 µM) | MIC Streptococcus pneumonine (ATCC 6301) [3]: 2 µg/mL (≈ 1.43 µM) | MIC Streptococcus pyogenes (GC 4563) [3]: 8 µg/mL (≈ 5.72 µM) | MIC Escherichia coli (ATCC 25922) [4]: >64 µg/mL | MIC Escherichia coli (GC 4559) [4]: >64 µg/mL | MIC Escherichia coli (GC 4560) [4]: 4 µg/mL (≈ 2.86 µM)
SMILES: CC(c1ccccc1)C1NC(=O)CNC(=O)C(CO)NC(=O)C(C(O)C2CNC(=N)N2C2OC(CO)C(O)C(O)C2O)NC(=O)C(C(O)C2CNC(=N)N2)NC(=O)C(Cc2ccc(OC3OC(CO)C(OC4OC5COC(c6cccc(O)c6)OC5C(O)C4O)C(O)C3O)cc2)NC1=O (stereo not drawn) [Example 136, Cyclo[glycyl-β-methylphenylalanyl-O-[4-O-[4,6-O-(3-hydroxybenzylidene)hexopyranosyl]-hexopyranosyl]tyrosyl-3-(2-iminoimidazolidin-4-yl)seryl-3-(3-hexopyranosyl-2-iminoimidazoliclin-4-yl)serylseryl]]
MIC Staphylococcus haemolyticus (GC 4546) [1, 5]: 16 µg/mL (≈ 11.4 µM) | MIC Staphylococcus haemolyticus (GC 4546) ([1]; strain GC 4546, broth dilution, 18 hours at 35° C.): 16 µg/mL (≈ 11.4 µM)
